In patent US12319721B2 (Purdue Research Foundation, priority 2018, dated 2025):
Bridges are numbered along the chain shown (N, C = ends). Roman numbers before positions name the chains, in order. Where no end group is shown, it is not given here. [ ]: non-standard residue; d: D form. The star is where a group is joined. mini PEG = minipeg spacer; Nle = CCCC[C@H](N)C(=O)O; Octanoyl = CCCCCCCC(=O)*; Dap = NC[C@H](N)C(=O)O

Columns and labels:
[1] = tested on: healed fractured femur; experiment: Femur fracture model, postmortem four-point bend of the healed femur; type: in vivo, Swiss Webster mice
From the text: All in vivo data included herein are from Swiss Webster mice. All mice received an osteotomy on their right femur and received subcutaneous drug administration daily for either 2, 3 or 4 weeks, as indicated, for each compound. 1×concentration represents 1 nmol/day, 10× represents 10 nmol/day, 100×represents 100 nmol/day and most studies have an n of 5.
The term “Peak Load” means a postmortem 4 point bend of the healed femur. Peak load represents the maximum force the healed femur withstood before it refractured.
(§1) The targeted conjugates were synthesized using standard Fmoc solid-phase peptide synthesis, as described above. To ensure the conjugates' activity, mouse pre osteo-blast (MCTC3-1) cells were treated with the targeted and untargeted compounds for three days at concentrations from 1 pM to 100 nM. After three days of treatment, the cells were harvested, and the ribonucleic acid (RNA) was purified from the cells. Expression levels of ALP, RUNx2, OSX, osteo-pontin (OPN), collagen 1A (Col-1A), OPG, RANKL, scle-rostin gene (SOST), and OC were quantified via quantitative reverse transcription polymerase chain reaction (RT-qPCR). Once the biological activity of the conjugates was confirmed, they were tested in vivo in a fracture model. Aseptic surgical techniques were used to place a 23-gage needle as in intramedullary nail in the femur of anesthetized, 12-week-old Swiss Webster mice for internal fixation before fracture. Femur fractures were induced using a drop weight fracture device from RISystem. The mice received buprenorphine for three days post fracture. The mice were dosed subcutaneously each day for two weeks, three weeks, 4 weeks, or 17 days. Fracture healing was assessed using microCT (Scanco Medical Ag). Morphometric parameters were quantified in the 100 widest slices of the fracture callus. Trabecular thickness (TbTh), trabecular spacing (TbSp), total volume (TV), and volume of calcified callus (BV) were calculated. Fractured femurs were tested for strength in a four-point bend to failure using an Electro Force TestBench (TA Instruments). Lower supports were 10 mm apart on the anterior face of the femur in contact with the proximal and distal diaphysis. Upper supports were 4 mm apart and spanned the entire fracture callus on the diaphysis. Force was applied from the posterior face of the femur with a displacement rate of 0.3 mm/sec. Peak load, yield load, stiffness, displacement post yield, work to fracture, and deformation data were generated. Statistical analysis was performed using a two-way analysis of variance (ANOVA) and a Tukey post-hoc analysis with significance reported at the 95% confidence level. All animal experiments were performed in accordance with protocols approved by Purdue University's Institutional Animal Care and Use Committee (IACUC).

[2] = tested on: fracture callus of fractured femur; experiment: Femur fracture model, microCT of the fracture callus (BV/TV, BV, TbTh, TbSp); type: in vivo, Swiss Webster mice
From the text: All in vivo data included herein are from Swiss Webster mice. […] 1×concentration represents 1 nmol/day, 10× represents 10 nmol/day, 100×represents 100 nmol/day and most studies have an n of 5.
The term “BV/TV” means the bone volume divided by total volume of the 100 thickest micro CT slices of the fracture callus.
The term “TbTh” means the trabecular thickness of the 100 thickest micro CT slices of the fracture callus.
The term “[…]” means the overall bone volume of the 100 thickest micro CT slices of the fracture callus.
The term “TbSp” means the spacing between the trabecula in the 100 thickest micro CT slices of the fracture callus.
as §1, with “The mice were dosed subcutaneously each day for two weeks, three weeks, 4 weeks, or 17 days.” left out

[3] = 3 weeks, 0.1, 1 and 10 nmol daily subcutaneous, n=5
[4] = 3 weeks, 0.1, 1 and 10 nmol daily subcutaneous
[5] = 2 weeks, various concentrations 1-100 nmol/day, subcutaneous daily
[6] = 3 weeks, 1, 10 and 100 nmol daily subcutaneous, n=5
[7] = 4 weeks, various concentrations (1, 10 and in part 100 nmol/day), subcutaneous daily
[8] = 1 μmol/kg, subcutaneous, every-other-day, CFW Swiss Webster mice

Molecule: B2A_mp4_(D)E10: two B2A branches (SEQ ID NO: 44) conjugated to e10 (D-glutamic acids), SEQ ID NO: 19, FIG. 35 (AIS[Nle]LYLDENEKVVLK; not fully specified; also: C-terminal Lys carries branching Lys-Ahx3-D-Glu10 moiety)
- Max load (bone strength) [1, 3]: raises bone strength
- Work to fracture (bone strength) [1, 3]: raises bone strength
- BV/TV (bone density) [2, 4]: raises bone density
- BV (bone volume, bone mineralization) [2, 3]: raises bone mineralization

Molecule: BFP-D10: bone forming peptide conjugated with 10 aspartate acids, SEQ ID NO: 1, DDDDDDDDDDGQGFSYPYKA VFSTQ (DDDDDDDDDDGQGFSYPYKAVFSTQ; 10 aspartates)
- Peak load of fractured femurs (ranking, compared to PBS) ([1]; after 2 weeks, 100 nmol/day (100×)): obtained the maximum peak load
- BV/TV [2, 5]: dose dependent manner
- TbSp [2, 5]: dose dependent manner

Molecule: CBM D10: collagen binding motif of osteopontin conjugated with 10 aspartate acids, SEQ ID NO: 9, FIG. 33
- BV/TV (bone density) [2, 4]: dose dependent manner

Molecule: F2A_mp4_(D)E10: two copies of FGF2 receptor targeting sequence YRSRKYSSWYVALKR branching from a lysine, 4 mini pegs, 10 D glutamic acids
- Max load (bone strength) [1, 3]: raises bone strength
- Work to fracture (bone strength) [1, 3]: raises bone strength
- BV/TV (bone density) [2, 4]: raises bone density
- BV (bone volume, bone mineralization) [2, 3]: raises bone mineralization

Molecule: F119_mp4 (D)E10: heparin binding fragment 119-135 of FGF2 with mp4 linker and 10 glutamic acids, SEQ ID NO: 20, FIG. 84 (KRTGQYKLGSKTGPGQK; mp4 linker, 10 D-glutamic acids; SITE 17 C-term Lysine modified with 4 mini PEG linker-d(Glutamic acid)10 moiety)
- Max load (bone strength) [1, 6]: raises bone strength
- Work to fracture (bone strength) [1, 6]: raises bone strength
- BV (bone volume, bone mineralization) [2, 6]: raises bone mineralization
- BV/TV (bone density) [2, 6]: raises bone density

Molecule: Ghrelin-D 10: Ghrelin D10 with Ser-3 replaced with diaminopropionic acid modified with an octanoyl group sidechain, SEQ ID NO: 5 (GS[Dap](Octanoyl)FLSPEHQKAQQRKESKKPPAKLQPRDDDDDDDDDD)
- BV/TV [2, 7]: dose dependent manner

Molecule: JNK3_Mp4_(D)E10: 25-residue arrestin-3 peptide (JNK3) with mp4 linker and 10 glutamic acids, SEQ ID NO: 21, FIG. 49 (MGEKPGTRVFKKSSPNCKLTVYLGK; mp4 linker, 10 D-glutamic acids; SITE 25 C-term Lysine modified with 4 mini PEG linker-d(Glutamic acid)10 moiety)
- Max load (bone strength) [1, 3]: raises bone strength
- Work to fracture (bone strength) [1, 3]: raises bone strength
- BV/TV (bone density) [2, 4]: raises bone density
- BV (bone volume, bone mineralization) [2, 3]: raises bone mineralization

Molecule: MGF D10: Mechano-growth factor conjugated with 10 aspartate acids, SEQ ID NO: 11, DDDDDDDDDDYQPPSTNKNTKSQRRKGSTFEEHK (10 aspartates)
- BV/TV [2, 7]: dose dependent manner

Molecule: ODP D10: Osteopontin-derived peptide conjugated with 10 aspartate acids via 4 mini PEG, SEQ ID NO: 13 (DDDDDDDDDD[mini PEG][mini PEG][mini PEG][mini PEG]DVDVPDGRGDSLAYG)
- BV/TV ([2]; 4 weeks, 1 nmol/day (1×)): healing was reflected as BV/TV

Molecule: OGP-D10: osteogenic growth peptide conjugated with 10 aspartate acids, SEQ ID NO: 2, DDDDDDDDDDALKRQGRTL YGFGG (DDDDDDDDDDALKRQGRTLYGFGG; 10 aspartates)
- BV/TV [2, 5]: dose dependent manner
- TbSp [2, 5]: dose dependent manner
- TbTh [2, 5]: dose dependent manner

Molecule: Osteostatin_mp4_(D)E10: Osteostatin (PTHrP[107-139]) with 10 glutamic acids, SEQ ID NO: 23, FIG. 59
- Max load (bone strength) [1, 3]: raises bone strength
- Stiffness [1, 3]: raises bone stiffness
- Work to fracture (bone strength) [1, 3]: raises bone strength
- BV/TV (bone density) [2, 4]: raises bone density
- Tbth (trabecular thickness, bone quality) [2, 3]: raises bone quality

Molecule: P4 D10: P4 (BMP-2 knuckle epitope fragment) conjugated with 10 aspartate acids, SEQ ID NO: 10 (HKIPKASSVPTELSAISTLYLDDDDDDDDDD; 10 aspartates)
- BV/TV [2, 7]: dose dependent manner

Molecule: Preptin D10: Preptin conjugated with 10 aspartate acids, SEQ ID NO: 3, FIG. 29 (DVSTSQAVLPDDFPRYDDDDDDDDDD; 10 aspartates)
- BV/TV [2, 5]: dose dependent manner
- TbTh [2, 5]: dose dependent manner
- bone volume (BV) [2, 5]: dose dependent manner

Molecule: pBMP9 D 10: peptide from BMP-9 knuckle epitope conjugated with D10, SEQ ID NO: 6/14, FIG. 27 (chain 1 CGGKVGKACCVPTKLSPISVLYK; chain 2 CGGKVGKACCVPTKLSPISVLVK; not fully specified (C-terminus); cysteine pairing not given here; also: the two chains differ at position 22 (Y vs V))
- bone volume (BV) ([2]; 4 weeks, 1, 10 and 100 nmol/day, subcutaneous daily): dose dependent manner
- BV/TV [2, 7]: dose dependent manner

Molecule: targeted E738 conjugate: Src inhibitor E738 conjugated with D10 (10 aspartic acids, SEQ ID NO: 30), FIG. 4 (DDDDDDDDDD; not fully specified (C-terminus); also: conjugated to Src inhibitor E738)
- Trabecular Thickness at the fracture callus [2, 8]: significantly improved
- bone density (BV/TV) at the fracture callus [2, 8]: significantly improved

B1: CNP D10: C-type Natriuretic peptide conjugated with 10 aspartate acids, SEQ ID NO: 7/16, FIG. 30 (peptide)
chain 1: DDDDDDDDDDGLSKGCFGLKLDRIGSMSGLGC
chain 2: B1 chain 1
modifications: disulfide I:16-I:32, II:16-II:32; not fully specified
- BV/TV [2, 7]: dose dependent manner

B2: VIP D10: Vasoactive intestinal peptide conjugated with D10, SEQ ID NO: 8/17, FIG. 31 (peptide)
chain 1: HSDAVFTDNYTRLRKQMAVKKYLNSILNDDDDDDDDDD
chain 2: B2 chain 1
modifications: 10 aspartates
- BV/TV ([2]; 4 weeks, 1 nmol/day (1×)): healing was reflected as BV/TV
- TbTh ([2]; 4 weeks, 1 nmol/day (1×)): healing was reflected
